*1 amine or outer side, *2 acyl side, *3 side chain or, on linkers, in order; H or OH if unused. Where a SMILES comes first, the peptide text is derived from it. Side-chain parts run from the residue outwards. [ ]: non-standard residue; d: D form. The star is where a group is joined. X10 = CCCCCCCCCCCCCCCC(=O)N[C@@H](CCC(=O)N[C@@H](CCC(=O)N[C@@H](CCC(=O)NCCCOCCOCCOCCCNC(=O)CCC(=O)NCCCOCCOCCOCCCN*)C(=O)O)C(=O)O)C(=O)O; Arachidoyl = CCCCCCCCCCCCCCCCCCCC(=O)*; Heptadecanoyl = CCCCCCCCCCCCCCCCC(=O)*; γGlu = O=C(O)[C@H](CCC(=O)[*:2])N[*:1]; Pentadecanoyl = CCCCCCCCCCCCCCC(=O)*; Palmitoyl = CCCCCCCCCCCCCCCC(=O)*; Myristoyl = CCCCCCCCCCCCCC(=O)*; Suc = O=C(CCC(=O)[*:2])[*:1]; αMeK = C[C@](N)(CCCCN)C(=O)O; Nle = CCCC[C@H](N)C(=O)O; AEEA = NCCOCCOCC(=O)O; Aib = CC(C)(N)C(=O)O
Molecular target: T1, RXFP1 (Homo sapiens, UniProt Q9HBX9)
T1 construct: OVCAR5 cells expressing endogenous RXFP1; endogenous in cells; host or cells: OVCAR5 cells
T1 sequence (Q9HBX9 1-757): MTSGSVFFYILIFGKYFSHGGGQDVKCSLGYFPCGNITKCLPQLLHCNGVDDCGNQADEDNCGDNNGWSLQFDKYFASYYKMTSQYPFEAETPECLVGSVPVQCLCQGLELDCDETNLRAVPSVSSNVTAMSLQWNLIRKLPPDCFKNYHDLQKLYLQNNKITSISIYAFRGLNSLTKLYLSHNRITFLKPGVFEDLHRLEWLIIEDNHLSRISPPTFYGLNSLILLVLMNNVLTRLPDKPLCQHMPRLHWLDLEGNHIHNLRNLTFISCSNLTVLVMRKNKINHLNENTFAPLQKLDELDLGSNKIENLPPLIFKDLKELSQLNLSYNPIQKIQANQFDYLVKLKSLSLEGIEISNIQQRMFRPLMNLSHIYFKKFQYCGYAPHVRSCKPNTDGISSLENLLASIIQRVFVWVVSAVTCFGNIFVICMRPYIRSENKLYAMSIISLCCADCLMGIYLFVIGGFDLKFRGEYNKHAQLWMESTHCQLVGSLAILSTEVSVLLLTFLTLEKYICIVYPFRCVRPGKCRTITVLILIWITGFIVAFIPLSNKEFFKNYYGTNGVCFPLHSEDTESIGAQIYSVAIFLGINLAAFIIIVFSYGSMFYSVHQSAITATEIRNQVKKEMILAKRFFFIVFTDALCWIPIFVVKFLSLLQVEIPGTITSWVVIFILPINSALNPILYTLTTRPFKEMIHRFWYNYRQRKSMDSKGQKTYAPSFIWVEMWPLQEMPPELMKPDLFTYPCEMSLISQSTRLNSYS
Experiment: OVCAR5 cAMP assay (HTRF), RXFP1 agonist activity
Type: cell-based
Conditions: for Emax: OVCAR-5, maximal cAMP relative to H2-relaxin maximum (100%), read-out: EMax, OVCAR 5 cells (cAMP); for EC50: OVCAR5 cells, cAMP HTRF, read-out: EC50 (nM), OVCAR 5 cells (cAMP)
Outline: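 cAMP accumulation readout: after 1 mM IBMX for 40 min, endogenous-RXFP1 OVCAR5 cells got rising peptide concentrations without FCS, 30 min, 37° C, then lysis with HTRF cAMP reagents. Nonlinear regression gave EC50; Emax expressed relative to H2-relaxin maximum, same occasion.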

Emax | EC50 | Compound
91% | 0.06 nM | CCCCCCCCCCCCCCC(=O)N[C@@H](CCC(=O)N[C@@H](CCC(=O)NCCCC[C@H](NC(=O)CC[C@H](NC(=O)CC[C@H](NC(=O)COCCOCCNC(=O)COCCOCCNC(=O)COCCOCCNC(=O)COCCOCCNC(=O)[C@H](CCCCNC(C)=O)NC(=O)[C@H](C)NC(=O)[C@H](CCCNC(=N)N)NC(=O)[C@](C)(CCCCN)NC(=O)[C@H](CO)NC(=O)[C@H](Cc1ccccc1)NC(=O)[C@@H](NC(=O)[C@H](CO)NC(=O)[C@H](CCCC)NC(=O)CNC(=O)[C@H](CCC(=O)O)NC(=O)C(C)(C)NC(=O)C(C)(C)NC(=O)[C@@H](NC(=O)[C@H](CCCCNC(C)=O)NC(=O)[C@H](C)NC(=O)[C@H](CCCNC(=N)N)NC(=O)[C@@H](NC(=O)[C@H](CCCCN)NC(=O)[C@H](CCC(=O)O)NC(=O)[C@H](CCCNC(=N)N)NC(=O)CNC(=O)[C@H](CCC(=O)O)NC(=O)[C@H](CC(C)C)NC(C)=O)C(C)C)[C@@H](C)CC)[C@@H](C)O)C(=O)O)C(=O)O)C(N)=O)C(=O)O)C(=O)O [compound 168] (Ac-LEGREKVRAK(Ac)I[Aib][Aib]EG[Nle]STFS[αMeK]RAK(Ac)[AEEA][AEEA][AEEA][AEEA][γGlu][γGlu]K([γGlu-γGlu-Pentadecanoyl])-NH2)
83% | 0.18 nM | CCCCCCCCCCCCCCCCCCCC(=O)N[C@@H](CCC(=O)N[C@@H](CCC(=O)N[C@@H](CCC(=O)NCCOCCOCC(=O)NCCOCCOCC(=O)NCCOCCOCC(=O)NCCCC[C@H](NC(=O)[C@H](CCCCNC(C)=O)NC(=O)[C@H](CCCCN)NC(=O)[C@H](CCCNC(=N)N)NC(=O)C(C)(C)NC(=O)[C@H](CO)NC(=O)[C@H](Cc1c[nH]c2ccccc12)NC(=O)[C@@H](NC(=O)[C@H](CO)NC(=O)[C@H](CCCC)NC(=O)CNC(=O)[C@H](CCC(=O)O)NC(=O)C(C)(C)NC(=O)C(C)(C)NC(=O)[C@@H](NC(=O)[C@H](CCCCNC(C)=O)NC(=O)[C@H](C)NC(=O)[C@H](CCCNC(=N)N)NC(=O)[C@@H](NC(=O)[C@H](CCCCN)NC(=O)[C@H](CCC(=O)O)NC(=O)[C@H](CCCNC(=N)N)NC(=O)CNC(=O)[C@H](CCC(=O)O)NC(=O)[C@H](CC(C)C)NC(C)=O)C(C)C)[C@@H](C)CC)[C@@H](C)O)C(N)=O)C(=O)O)C(=O)O)C(=O)O [compound 171] (Ac-LEGREKVRAK(Ac)I[Aib][Aib]EG[Nle]STWS[Aib]RKK(Ac)K([AEEA-AEEA-AEEA-γGlu-γGlu-γGlu-Arachidoyl])-NH2)
95% | 0.56 nM | CCCCCCCCCCCCCC(=O)N[C@@H](CCC(=O)N[C@@H](CCC(=O)N[C@@H](CCC(=O)N[C@@H](CCC(=O)NCCCC[C@H](NC(=O)COCCOCCNC(=O)COCCOCCNC(=O)COCCOCCNC(=O)COCCOCCNC(=O)[C@H](CCCCNC(C)=O)NC(=O)[C@H](C)NC(=O)[C@H](CCCNC(=N)N)NC(=O)[C@](C)(CCCCN)NC(=O)[C@H](CO)NC(=O)[C@H](Cc1ccccc1)NC(=O)[C@@H](NC(=O)[C@H](CO)NC(=O)[C@H](CCCC)NC(=O)CNC(=O)[C@H](CCC(=O)O)NC(=O)C(C)(C)NC(=O)C(C)(C)NC(=O)[C@@H](NC(=O)[C@H](CCCCNC(C)=O)NC(=O)[C@H](C)NC(=O)[C@H](CCCNC(=N)N)NC(=O)[C@@H](NC(=O)[C@H](CCCCN)NC(=O)[C@H](CCC(=O)O)NC(=O)[C@H](CCCNC(=N)N)NC(=O)CNC(=O)[C@H](CCC(=O)O)NC(=O)[C@H](CC(C)C)NC(C)=O)C(C)C)[C@@H](C)CC)[C@@H](C)O)C(N)=O)C(=O)O)C(=O)O)C(=O)O)C(=O)O [compound 172] (Ac-LEGREKVRAK(Ac)I[Aib][Aib]EG[Nle]STFS[αMeK]RAK(Ac)[AEEA][AEEA][AEEA][AEEA]K([γGlu-γGlu-γGlu-γGlu-Myristoyl])-NH2)

Further lines, the compound ahead of its results:

Compound | Emax | EC50
CCCCCCCCCCCCCCCCC(=O)N[C@@H](CCC(=O)N[C@@H](CCC(=O)N[C@@H](CCC(=O)NCCOCCOCC(=O)NCCOCCOCC(=O)NCCOCCOCC(=O)NCCCC[C@H](NC(=O)[C@H](CCCCNC(C)=O)NC(=O)[C@H](CCCCN)NC(=O)[C@H](CCCNC(=N)N)NC(=O)C(C)(C)NC(=O)[C@H](CO)NC(=O)[C@H](Cc1c[nH]c2ccccc12)NC(=O)[C@@H](NC(=O)[C@H](CO)NC(=O)[C@H](CCCC)NC(=O)CNC(=O)[C@H](CCC(=O)O)NC(=O)C(C)(C)NC(=O)C(C)(C)NC(=O)[C@@H](NC(=O)[C@H](CCCCNC(C)=O)NC(=O)[C@H](C)NC(=O)[C@H](CCCNC(=N)N)NC(=O)[C@@H](NC(=O)[C@H](CCCCN)NC(=O)[C@H](CCC(=O)O)NC(=O)[C@H](CCCNC(=N)N)NC(=O)CNC(=O)[C@H](CCC(=O)O)NC(=O)[C@H](CC(C)C)NC(C)=O)C(C)C)[C@@H](C)CC)[C@@H](C)O)C(N)=O)C(=O)O)C(=O)O)C(=O)O [compound 164] (Ac-LEGREKVRAK(Ac)I[Aib][Aib]EG[Nle]STWS[Aib]RKK(Ac)K([AEEA-AEEA-AEEA-γGlu-γGlu-γGlu-Heptadecanoyl])-NH2) | 93% | 
CCCCCCCCCCCCCCCC(=O)N[C@@H](CCC(=O)NCCOCCOCC(=O)N[C@@H](CCC(=O)N[C@@H](CCC(=O)NCCOCCOCC(=O)NCCOCCOCC(=O)NCCCC[C@H](NC(=O)[C@H](CCCCNC(C)=O)NC(=O)[C@H](CCCCN)NC(=O)[C@H](CCCNC(=N)N)NC(=O)C(C)(C)NC(=O)[C@H](CO)NC(=O)[C@H](Cc1c[nH]c2ccccc12)NC(=O)[C@@H](NC(=O)[C@H](CO)NC(=O)[C@H](CCCC)NC(=O)CNC(=O)[C@H](CCC(=O)O)NC(=O)C(C)(C)NC(=O)C(C)(C)NC(=O)[C@@H](NC(=O)[C@H](CCCCNC(C)=O)NC(=O)[C@H](C)NC(=O)[C@H](CCCNC(=N)N)NC(=O)[C@@H](NC(=O)[C@H](CCCCN)NC(=O)[C@H](CCC(=O)O)NC(=O)[C@H](CCCNC(=N)N)NC(=O)CNC(=O)[C@H](CCC(=O)O)NC(=O)[C@H](CC(C)C)NC(C)=O)C(C)C)[C@@H](C)CC)[C@@H](C)O)C(N)=O)C(=O)O)C(=O)O)C(=O)O [compound 165] (Ac-LEGREKVRAK(Ac)I[Aib][Aib]EG[Nle]STWS[Aib]RKK(Ac)K([AEEA-AEEA-γGlu-γGlu-AEEA-γGlu-Palmitoyl])-NH2) | 105% | 0.38 nM
CCCCCCCCCCCCCCCC(=O)N[C@@H](CCC(=O)N[C@@H](CCC(=O)N[C@@H](CCC(=O)NCCCOCCOCCOCCCNC(=O)CCC(=O)NCCCOCCOCCOCCCNC(=O)CCC(=O)NCCCC[C@H](NC(=O)[C@H](CCCCNC(C)=O)NC(=O)[C@H](CCCCN)NC(=O)[C@H](CCCNC(=N)N)NC(=O)C(C)(C)NC(=O)[C@H](CO)NC(=O)[C@H](Cc1c[nH]c2ccccc12)NC(=O)[C@@H](NC(=O)[C@H](CO)NC(=O)[C@H](CCCC)NC(=O)CNC(=O)[C@H](CCC(=O)O)NC(=O)C(C)(C)NC(=O)C(C)(C)NC(=O)[C@@H](NC(=O)[C@H](CCCCNC(C)=O)NC(=O)[C@H](C)NC(=O)[C@H](CCCNC(=N)N)NC(=O)[C@@H](NC(=O)[C@H](CCCCN)NC(=O)[C@H](CCC(=O)O)NC(=O)[C@H](CCCNC(=N)N)NC(=O)CNC(=O)[C@H](CCC(=O)O)NC(=O)[C@H](CC(C)C)NC(C)=O)C(C)C)[C@@H](C)CC)[C@@H](C)O)C(N)=O)C(=O)O)C(=O)O)C(=O)O [compound 166] (Ac-LEGREKVRAK(Ac)I[Aib][Aib]EG[Nle]STWS[Aib]RKK(Ac)K([Suc-X10])-NH2) | 92% | 0.26 nM
CCCCCCCCCCCCCCC(=O)N[C@@H](CCC(=O)N[C@@H](CCC(=O)N[C@@H](CCC(=O)N[C@@H](CCC(=O)NCCCC[C@H](NC(=O)COCCOCCNC(=O)COCCOCCNC(=O)COCCOCCNC(=O)COCCOCCNC(=O)[C@H](CCCCNC(C)=O)NC(=O)[C@H](C)NC(=O)[C@H](CCCNC(=N)N)NC(=O)[C@](C)(CCCCN)NC(=O)[C@H](CO)NC(=O)[C@H](Cc1ccccc1)NC(=O)[C@@H](NC(=O)[C@H](CO)NC(=O)[C@H](CCCC)NC(=O)CNC(=O)[C@H](CCC(=O)O)NC(=O)C(C)(C)NC(=O)C(C)(C)NC(=O)[C@@H](NC(=O)[C@H](CCCCNC(C)=O)NC(=O)[C@H](C)NC(=O)[C@H](CCCNC(=N)N)NC(=O)[C@@H](NC(=O)[C@H](CCCCN)NC(=O)[C@H](CCC(=O)O)NC(=O)[C@H](CCCNC(=N)N)NC(=O)CNC(=O)[C@H](CCC(=O)O)NC(=O)[C@H](CC(C)C)NC(C)=O)C(C)C)[C@@H](C)CC)[C@@H](C)O)C(N)=O)C(=O)O)C(=O)O)C(=O)O)C(=O)O [compound 167] (Ac-LEGREKVRAK(Ac)I[Aib][Aib]EG[Nle]STFS[αMeK]RAK(Ac)[AEEA][AEEA][AEEA][AEEA]K([γGlu-γGlu-γGlu-γGlu-Pentadecanoyl])-NH2) | 93% | 0.05 nM

From patent US10988523B2, “Modified lipidated Relaxin B chain peptides and their therapeutic use” (Sanofi, priority 2018, dated 2021)
